Measured values as given in ChEMBL document CHEMBL1135292, “A practical synthesis of (S) 3-tert-butoxycarbonylamino-2-oxo-2,3,4,5-tetrahydro-1,5-benzodiazepine-1-acetic acid methyl ester as a conformationally restricted dipeptido-mimetic for caspase-1 (ICE) inhibitors” (Bioorg Med Chem Lett, 2002).

Key:
Homo sapiens = species: Homo sapiens; experiment: Ability to block the release of interleukin-1 beta from human whole blood stimulated with heat-killed staphylococcus aureus; type: functional, organism-based
Caspase-1 = biological target: T1, Caspase-1 (Homo sapiens, UniProt P29466); experiment: Compound was tested for inhibitory activity against IL-1 beta converting enzyme
T1 sequence (P29466 whole entry): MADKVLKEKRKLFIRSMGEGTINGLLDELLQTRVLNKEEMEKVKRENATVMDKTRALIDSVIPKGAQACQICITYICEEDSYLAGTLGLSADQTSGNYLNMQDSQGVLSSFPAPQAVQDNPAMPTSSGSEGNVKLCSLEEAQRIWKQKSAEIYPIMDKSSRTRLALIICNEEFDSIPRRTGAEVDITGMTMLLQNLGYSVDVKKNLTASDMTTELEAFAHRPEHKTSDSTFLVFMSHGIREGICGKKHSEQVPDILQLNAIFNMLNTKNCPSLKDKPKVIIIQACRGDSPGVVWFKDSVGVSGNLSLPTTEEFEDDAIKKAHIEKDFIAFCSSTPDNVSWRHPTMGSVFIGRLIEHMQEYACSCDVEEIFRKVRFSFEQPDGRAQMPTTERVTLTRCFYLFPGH

Ki (Caspase-1) | Compound | IC50 (Homo sapiens)
– | CC(=O)N[C@@H](Cc1ccc(O)cc1)C(=O)N[C@H](C(=O)N[C@@H](C)C(=O)N[C@H]1CC(=O)OC1O)C(C)C (some centres not stated) | 4 µM
0.09 µM | O=C(CN1C(=O)[C@@H](NC(=O)c2ccccc2)CN(C(=O)CCc2ccccc2)c2ccccc21)N[C@H]1CC(=O)OC1O (some centres not stated) | –
